Where a name gives a salt, the structure may show the parent alone.
SMILES	melting point
COC(=O)c1ccc2c(c1)NC(=O)/C2=C(\Nc1ccc(NC(=O)CN2CCN(C)CC2)c(C)c1C)c1ccccc1 [(ae), 3-Z-[1-(2,3-dimethyl-4-(N-((4-methyl-piperazin-1-yl)-methylcarbonyl)-amino)-anilino)-1-phenyl-methylene]-6-methoxycarbonyl-2-indolinone]	254 to 257 °C
COC(=O)c1ccc2c(c1)NC(=O)/C2=C(\Nc1ccc(CN(C)C)cc1)c1cccc(CCC(=O)O)c1 [(aw), 3-Z-[1-(4-dimethylaminomethyl-anilino)-1-(3-(2-carboxy-ethyl)-phenyl)-methylene]-6-methoxycarbonyl-2-indolinone]	163 to 167 °C
COC(=O)c1ccc2c(c1)NC(=O)/C2=C(\Nc1ccc(CCN(C)C)cc1)c1cccc(CCC(=O)O)c1 [(ax), 3-Z-[1-(4-(2-dimethylamino-ethyl)-anilino)-1-(3-(2-carboxy-ethyl)-phenyl)-methylene]-6-methoxycarbonyl-2-indolinone]	248 to 255 °C
COC(=O)c1ccc2c(c1)NC(=O)/C2=C(\Nc1ccc(-c2nccn2C)cc1)c1cccc(CCC(=O)O)c1 [(ay), 3-Z-[1-(4-(1-methyl-imidazol-2-yl)-anilino)-1-(3-(2-carboxy-ethyl)-phenyl)-methylene]-6-methoxycarbonyl-2-indolinone]	184 to 190 °C
COC(=O)c1ccc2c(c1)NC(=O)/C2=C(\Nc1ccc(CN(C)C)cc1)c1ccc(CCC(=O)O)cc1 [(az), 3-Z-[1-(4-dimethylaminomethyl-anilino)-1-(4-(2-carboxy-ethyl)-phenyl)-methylene]-6-methoxycarbonyl-2-indolinone]	190 to 195 °C
CCNC(=O)c1ccc2c(c1)NC(=O)/C2=C(\Nc1ccc(N(C)C(=O)CN2CCN(C)CC2)cc1)c1ccccc1 [(bv), 3-Z-[1-(4-(N-((4-methyl-piperazin-1-yl)-methylcarbonyl)-N-methyl-amino)-anilino)-1-phenyl-methylene]-6-ethylcarbamoyl-2-indolinone]	279 to 283 °C
CCNC(=O)c1ccc2c(c1)NC(=O)/C2=C(\Nc1ccc(N(CCN(C)C)S(C)(=O)=O)cc1)c1ccccc1 [(bw), 3-Z-[1-(4-(N-(2-dimethylamino-ethyl)-N-methylsulphonyl-amino)-anilino)-1-phenyl-methylene]-6-ethylcarbamoyl-2-indolinone]	213 to 217 °C
CCN(CC)C(=O)c1ccc2c(c1)NC(=O)/C2=C(\Nc1ccc(N(C)C(=O)CN2CCN(C)CC2)cc1)c1ccccc1 [(ci), 3-Z-[1-(4-(N-((4-methyl-piperazin-1-yl)-methylcarbonyl)-N-methyl-amino)-anilino)-1-phenyl-methylene]-6-diethylcarbamoyl-2-indolinone]	195 to 198 °C
CCNC(=O)c1ccc2c(c1)NC(=O)/C2=C(\Nc1ccc(N(CCCN(C)C)S(C)(=O)=O)cc1)c1ccccc1 [(cn), 3-Z-[1-(4-(N-(3-dimethylamino-propyl)-N-methylsulphonyl-amino)-anilino)-1-phenyl-methylene]-6-ethylcarbamoyl-2-indolinone]	171 to 175 °C
COC(=O)c1ccc2c(c1)NC(=O)/C2=C\Nc1ccc(N(C)C(=O)CN(C)C)cc1 [(co), 3-Z-[1-(4-(N-dimethylaminomethylcarbonyl-N-methyl-amino)-anilino)-methylene]-6-methoxycarbonyl-2-indolinone]	250 to 255 °C
COC(=O)c1ccc2c(c1)NC(=O)/C2=C\Nc1ccc(CN(C)C)cc1 [(cp), 3-Z-[1-(4-dimethylaminomethyl-anilino)-methylene]-6-methoxycarbonyl-2-indolinone]	234 to 238 °C
COC(=O)c1ccc2c(c1)NC(=O)/C2=C\Nc1ccc(N(C)C(=O)CN2CCN(C)CC2)cc1 [(cq), 3-Z-[1-(4-(N-((4-methyl-piperazin-1-yl)-methylcarbonyl)-N-methyl-amino)-anilino)-methylene]-6-methoxycarbonyl-2-indolinone]	203 to 207 °C
CCNC(=O)c1ccc2c(c1)NC(=O)/C2=C\Nc1ccc(CN2CCCCC2)cc1 [(ct), 3-Z-[1-(4-(piperidin-1-yl-methyl)-anilino)-methylene]-6-ethylcarbamoyl-2-indolinone]	245 to 248 °C
CCNC(=O)c1ccc2c(c1)NC(=O)/C2=C\Nc1ccc(N(CCCN(C)C)C(C)=O)cc1 [(cu), 3-Z-[1-(4-(N-(3-dimethylamino-propyl)-N-acetyl-amino)-anilino)-methylene]-6-ethylcarbamoyl-2-indolinone]	130 °C

Next, values leading:

melting point	SMILES
256 to 257 °C	NC(CCO)(CCO)c1ccc(N/C(=C2\C(=O)Nc3cc(C(=O)O)ccc32)c2ccccc2)cc1 (as salt: Na) [(aq), 3-Z-[1-(4-(di-(2-hydroxy-ethyl)-amino-methyl)-anilino)-1-phenyl-methylene]-6-carboxy-2-indolinone]
190 to 193 °C	COC(=O)c1ccc2c(c1)NC(=O)/C2=C(\Nc1ccc(N(C)C(=O)CC2CCN(C)CC2)cc1)c1ccccc1 [(ad), 3-Z-[1-(4-(N-((1-methyl-piperidin-4-yl)-methylcarbonyl)-N-methyl-amino)-anilino)-1-phenyl-methylene]-6-methoxycarbonyl-2-indolinone]
205 to 208 °C	COC(=O)c1ccc2c(c1)NC(=O)/C2=C(\Nc1ccc(N(C)C(=O)N2CCN(C)CC2)cc1)c1ccccc1 [(ag), 3-Z-[1-(4-(N-((4-methyl-piperazin-1-yl)-carbonyl)-N-methyl-amino)-anilino)-1-phenyl-methylene]-6-methoxycarbonyl-2-indolinone]
166 to 170 °C	COC(=O)c1ccc2c(c1)NC(=O)/C2=C(\Nc1ccc(N(C)C(=O)NCCCN(C)C)cc1)c1ccccc1 [(ai), 3-Z-[1-(4-(N-((3-dimethylamino-propyl)-aminocarbonyl)-N-methyl-amino)-anilino)-1-phenyl-methylene]-6-methoxycarbonyl-2-indolinone]
275 °C	CN1CCN(Cc2ccc(N/C(=C3\C(=O)Nc4cc(C(=O)O)ccc43)c3ccccc3)cc2)CC1 [(am), 3-Z-[1-(4-(4-methylpiperazin-1-yl-methyl)-anilino)-1-phenyl-methylene]-6-carboxy-2-indolinone]
287 °C	CNCc1ccc(N/C(=C2\C(=O)Nc3cc(C(=O)O)ccc32)c2ccccc2)cc1 [(an), 3-Z-[1-(4-methylaminomethyl-anilino)-1-phenyl-methylene]-6-carboxy-2-indolinone]
335 °C	O=C1Nc2cc(C(=O)O)ccc2/C1=C(/Nc1ccc(CN2CCOCC2)cc1)c1ccccc1 [(ao), 3-Z-[1-(4-(morpholin-4-yl-methyl)-anilino)-1-phenyl-methylene]-6-carboxy-2-indolinone]
280 °C	CN(C)CCN(c1ccc(N/C(=C2\C(=O)Nc3cc(C(=O)O)ccc32)c2ccccc2)cc1)S(C)(=O)=O [(ap), 3-Z-[1-(4-(N-(2-dimethylamino-ethyl)-N-methylsulphonyl-amino)-anilino)-1-phenyl-methylene]-6-carboxy-2-indolinone]
237 to 238 °C	CN(C(=O)CN1CCOCC1)c1ccc(N/C(=C2\C(=O)Nc3cc(C(=O)O)ccc32)c2ccccc2)cc1 [(as), 3-Z-[1-(4-(N-(morpholin-4-yl-methylcarbonyl)-N-methyl-amino)-anilino)-1-phenyl-methylene]-6-carboxy-2-indolinone]
238 to 240 °C	CN(C)CCN(C)CC(=O)N(C)c1ccc(N/C(=C2\C(=O)Nc3cc(C(=O)O)ccc32)c2ccccc2)cc1 [(at), 3-Z-[1-(4-(N—(N-(2-dimethylamino-ethyl)-N-methyl-aminomethylcarbonyl)-N-methyl-amino)-anilino)-1-phenyl-methylene]-6-carboxy-2-indolinone]
308 to 311 °C	CCNC(=O)c1ccc2c(c1)NC(=O)/C2=C(\Nc1ccc(OCCN(C)C)cc1)c1ccccc1 [(bu), 3-Z-[1-(4-(2-dimethylamino-ethoxy)-anilino)-1-phenyl-methylene]-6-ethylcarbamoyl-2-indolinone]
130 to 134 °C	CCNC(=O)c1ccc2c(c1)NC(=O)/C2=C(\Nc1ccc(N(C)C(=O)CN(C)C)cc1)c1ccccc1 [(by), 3-Z-[1-(4-(N-dimethylaminomethylcarbonyl-N-methyl-amino)-anilino)-1-phenyl-methylene]-6-ethylcarbamoyl-2-indolinone]
341 to 344 °C	CCNC(=O)c1ccc2c(c1)NC(=O)/C2=C(\Nc1ccc(CN(C)C)cc1)c1ccccc1 [(bz), 3-Z-[1-(4-dimethylaminomethyl-anilino)-1-phenyl-methylene]-6-ethylcarbamoyl-2-indolinone]
266 to 270 °C	CCNC(=O)c1ccc2c(c1)NC(=O)/C2=C(\Nc1ccc(N(CCN(C)C)C(C)=O)cc1)c1ccccc1 [(ca), 3-Z-[1-(4-(N-(2-dimethylamino-ethyl)-N-acetyl-amino)-anilino)-1-phenyl-methylene]-6-ethylcarbamoyl-2-indolinone]
198 to 202 °C	CCNC(=O)c1ccc2c(c1)NC(=O)/C2=C(\Nc1ccc(N(CCCN(C)C)C(C)=O)cc1)c1ccccc1 [(cb), 3-Z-[1-(4-(N-(3-dimethylamino-propyl)-N-acetyl-amino)-anilino)-1-phenyl-methylene]-6-ethylcarbamoyl-2-indolinone]
288 to 292 °C	CCNC(=O)c1ccc2c(c1)NC(=O)/C2=C(\Nc1ccc(C(=O)N2CCN(C)CC2)cc1)c1ccccc1 [(cf), 3-Z-[1-(4-((4-methyl-piperazin-1-yl)-carbonyl)-anilino)-1-phenyl-methylene]-6-ethylcarbamoyl-2-indolinone]
127 to 130 °C	CCNC(=O)c1ccc2c(c1)NC(=O)/C2=C(\Nc1ccc(C(=O)N2CCN(CC)CC2)cc1)c1ccccc1 [(ck), 3-Z-[1-(4-((4-ethyl-piperazin-1-yl)-carbonyl)-anilino)-1-phenyl-methylene]-6-ethylcarbamoyl-2-indolinone]
217 to 220 °C	CCNC(=O)c1ccc2c(c1)NC(=O)/C2=C(\Nc1ccc(C(=O)N2C[C@@H](C)N[C@@H](C)C2)cc1)c1ccccc1 [(cm), 3-Z-[1-(4-((cis-3,5-dimethyl-piperazin-1-yl)-carbonyl)-anilino)-1-phenyl-methylene]-6-ethylcarbamoyl-2-indolinone]
